This is an account of results in PubChem BioAssay (NCI).

Common to all, as to assay: NCI-60 cell line screen, 48 h
For assay [1], the system named is A549 NSCLC.
The subject of assay [2] is DMS 273 small cell lung.
In assay [3] the test system is HCT-116 colon.
Assay [4] relates to DMS 114 small cell lung.
Assay [5] deals with HCC-2998 colon.
Assay [6] concerns M19-MEL melanoma.
Assay [7] concerns HOP-18 NSCLC.
For assay [8], the system named is LXFL 529 NSCLC.
Assay [9] relates to DLD-1 colon.
Assay [10] deals with KM20L2 colon.
Assay [11] relates to K-562 leukemia.
In assay [12] the test system is SNB-78 CNS.
Assay [13] relates to CCRF-CEM leukemia.
Assay [14] deals with XF 498 CNS.
For assay [15], the system named is BT-549 breast.

Molecules are shown by their SMILES.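 Five concentrations, 48 hours, 96-well plates. TGI is the concentration that stops growth completely.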

With `O=C1C(Cl)C(c2cccc([N+](=O)[O-])c2)N1n1cnc2ccccc2c1=O` (configuration not stated), the TGI in [1], in assay [2], in [3], in assay [4], in [5] and in [6] was greater than 100 µM each time. The TGI in [7], in [8], in [9], in assay [10] and in [11] was greater than 100 µM each time.

Turning to `CCN(CC)C(=O)CCn1ccc(=O)[nH]c1=O`, the TGI in assay [1], in assay [2], in assay [3], in assay [4], in assay [6] and in [8] was greater than 100 µM in each case. Besides, the TGI in [10], in assay [11], in [12], in [13] and in [14] was greater than 100 µM in each case.

As to `Nc1ccccc1N`, the TGI in assay [1], in assay [2], in [3], in [5], in assay [6] and in assay [7] was greater than 100 µM throughout. The TGI in assay [8], in assay [9], in assay [11] and in assay [13] was greater than 100 µM each time.

As for `CC(=O)CCC#Cc1ccccc1C(=O)C(C)=[N+]=[N-]`, the TGI in assay [1] was greater than 100 µM; in assay [2], 90.1 µM; in assay [3] it was 47.8 µM; in [4], 42 µM; in assay [5], greater than 100 µM; in [7], greater than 100 µM. Further, the TGI in assay [9] is greater than 100 µM; in [10], greater than 100 µM; in assay [11], greater than 100 µM; in assay [13], greater than 100 µM; in assay [14] it was 89.3 µM.

In the case of `CC(C)=CCC[C@@H](C)[C@H]1CC[C@@]2(C)[C@@H]3CC[C@H]4C(C)(C)[C@@H](O)CC[C@@]45C[C@@]35CC[C@]12C`, the TGI in assay [1] was 48.1 µM; in assay [15], 55.6 µM; in assay [3], greater than 77.9 µM; in assay [5] it was greater than 31.6 µM; in assay [11], greater than 100 µM; in assay [13] it was 63.5 µM.

With `N=c1sc2ccccc2n1CCS` (tested in a mixture with another compound), the TGI in assay [1] is 37.3 µM; in [15] it was 48.4 µM; in assay [3], 30.5 µM; in assay [5], 30.8 µM; in assay [11], 44.7 µM; in [13], greater than 100 µM.

With `O=C(O)C(Cc1cc(I)c(O)c(I)c1)C1CCCCC1` (configuration not stated), the TGI in [1] was greater than 100 µM; in assay [15], greater than 100 µM; in assay [3], 88.7 µM; in [5], 76.9 µM; in assay [11], greater than 100 µM; in [13] it was greater than 100 µM.

For `CCC(C)N1CN(c2ccccc2)C2(CCN(CC3COc4ccccc4O3)CC2)C1=O` (configuration not stated), the TGI in assay [1] is greater than 100 µM; in assay [15], 31.6 µM; in assay [3], 32 µM; in [5], 38.8 µM; in [11] it was 46.9 µM; in [13] it was 64.5 µM.

`O=C1C2C3C4C1C1C2[C@H](OCc2ccccc2)C3C1[C@H]4OCc1ccccc1` (some centres not stated): the TGI in [1], in assay [15], in [3], in assay [5], in assay [11] and in assay [13] was greater than 100 µM each time.

As for `C=C1c2nc3ccccc3n2C=C(c2ccc(OC)cc2)N1c1ccc(OCCN2CCCCC2)cc1`, the TGI in assay [1] was greater than 84.6 µM; in assay [15], greater than 100 µM; in [3], greater than 42.4 µM; in assay [5] it was 33.6 µM; in assay [11], greater than 100 µM; in [13], 10.1 µM.

Turning to `NS(=O)(=O)c1ccc(NC(=S)NC(=O)Nc2ccc(Cl)c(Cl)c2)cc1`, the TGI in assay [1] is 31.7 µM; in assay [15], 31.7 µM; in assay [3] it was 27.7 µM; in [5], 30.9 µM; in assay [11] it was greater than 82.6 µM; in assay [13] it was 70.7 µM.

In the case of `CC(C#N)(c1ccccc1)N(CCc1ccccc1)C(=O)Oc1ccccc1` (configuration not stated), the TGI in assay [1], in assay [15], in assay [3], in assay [5], in assay [11] and in [13] was greater than 100 µM throughout.

Take `C=CCN1C(=O)CC2[C@@H]3CCc4cc(O)ccc4C3CC[C@]2(C)C1=O` (some centres not stated): the TGI in assay [1], in assay [15], in [3], in assay [5], in assay [11] and in [13] was greater than 10 µM throughout.

Turning to `Cc1ccc(-c2n[nH]c(=O)n2/N=C\c2ccccc2O)cc1`, the TGI in assay [1], in [15], in [3], in [5], in [11] and in [13] was greater than 100 µM each time.

Regarding `CC[C@@H]1/C=C/C=C/C[C@H](C)[C@@H](O)[C@@H](C)C(=O)[C@H](C)[C@@H](O)[C@H](C)C(=O)[C@H](C)[C@@H](O)[C@H](C)/C=C/C(=O)O[C@H]2[C@@H](C)[C@@H](CC1)O[C@@]1(CC[C@@H](C)[C@@H](CC(C)O)O1)[C@@H]2C` (some centres not stated), the TGI in assay [1] was greater than 16.9 µM; in [15], 24.4 µM; in assay [3] it was greater than 25 µM; in assay [5], 8.52 µM; in assay [11], greater than 25 µM; in assay [13], greater than 14.4 µM.

Consider `O=C1c2cc(Br)ccc2-c2ccc3c4ccc5c6c(ccc(c7ccc1c2c73)c64)C(=O)c1cc(Br)ccc1-5`, for which the TGI in [1], in assay [15], in [3], in [5], in assay [11] and in assay [13] was greater than 100 µM in each case.

As to `COC(=O)NC(=O)NC(Cc1ccccc1)NC(=O)OCc1ccccc1` (configuration not stated), the TGI in [1], in assay [15], in assay [3], in assay [5], in [11] and in assay [13] was greater than 100 µM throughout.

As to `O=c1[nH]c(=S)[nH]cc1CN1CCOCC1`, the TGI in assay [1], in assay [15], in assay [3], in assay [5], in assay [11] and in [13] was greater than 100 µM throughout.

Consider `C=C=C[P+](c1ccccc1)(c1ccccc1)c1ccccc1`, for which the TGI was greater than 100 µM in assay [1]; 54.8 µM in assay [2]; 15.5 µM in assay [3]; 29.9 µM in [4]; greater than 100 µM in assay [5]; 91.9 µM in [6]. For the same compound, the TGI in assay [7] was greater than 100 µM; in [8] it was 20.8 µM; in [9], greater than 100 µM; in assay [11], 9.46 µM; in assay [12], 86 µM; in assay [13], 22.3 µM.

As to `O=C(O)CN1CCSc2ccccc2CN(CC(=O)O)CCSc2ccccc2C1`, the TGI in [1], in assay [2], in assay [3], in assay [5], in [6] and in assay [7] was greater than 100 µM in each case. In addition, the TGI in [8], in assay [9], in assay [10], in assay [11], in assay [12] and in [13] was greater than 100 µM throughout.

Take `CC(CN1NC12CCCC2)N1NC12CCCC2` (configuration not stated): the TGI in assay [1], in assay [15], in [3], in assay [5], in assay [11] and in assay [13] was greater than 100 µM in each case.

Consider `CSC(=S)CC(O)[C@@H]1CC2c3ccccc3C1c1ccccc12` (some centres not stated), for which the TGI was 34.4 µM in assay [1]; 34.2 µM in assay [15]; 20.9 µM in [3]; 28.2 µM in assay [5]; 30.4 µM in assay [11]; 10.6 µM in assay [13].

With `NC(N)=N/N=C\c1c(-c2cccc([N+](=O)[O-])c2)nc2sccn12`, the TGI in [1] is 51.6 µM; in [15], 4.06 µM; in assay [3], greater than 100 µM; in assay [5], 5.38 µM; in assay [11] it was greater than 100 µM; in assay [13], greater than 100 µM.

As for `C=C1CC[C@](C)(O)[C@@]2(C)CC[C@H]3C(=C(C)C)C(=O)C[C@]3(C)C[C@H]12`, the TGI in assay [1] was greater than 50 µM; in [15], greater than 50 µM; in [3], greater than 50 µM; in assay [5], greater than 50 µM; in assay [11], 16.8 µM; in assay [13], 30.9 µM.

`CN1C2CCC1/C(=C/c1cccc3c1OCO3)C(=O)/C2=C\c1cccc2c1OCO2`: the TGI in assay [2], in [3], in [4], in assay [5], in assay [6] and in [8] was greater than 100 µM each time. Besides, the TGI in assay [9], in assay [10], in assay [13] and in [14] was greater than 100 µM throughout.

Take `C=C(Br)C(C)(Cl)CCC(Br)C(C)(C)Br` (configuration not stated): the TGI was greater than 100 µM in [1]; greater than 100 µM in [2]; greater than 100 µM in assay [3]; 76 µM in assay [4]; greater than 100 µM in assay [6]; greater than 100 µM in assay [7]. Besides, the TGI in assay [8] is greater than 100 µM; in assay [9], greater than 100 µM; in assay [11] it was 80.9 µM; in assay [12] it was greater than 100 µM; in assay [13], 59.6 µM.

Regarding `CC1(C)CNC(=O)C2(CCCO2)CNC(C)(C)CNC(=O)C2(CCCO2)CN1` (configuration not stated), the TGI in [1], in assay [15], in assay [3], in assay [5], in [11] and in assay [13] was greater than 10 µM each time.

`CCOC(=O)CC1=N/C(=N/C(=N)N[N+](=O)[O-])SC1`: the TGI in assay [1], in assay [2], in [3], in assay [5], in assay [6] and in assay [7] was greater than 100 µM each time. Moreover, the TGI in assay [8], in assay [9], in assay [10], in assay [11], in assay [12] and in [13] was greater than 100 µM throughout.

For `N#Cc1cc2c(cc1C#N)SCCSCCCSCCS2`, the TGI in assay [1] was greater than 100 µM; in [15] it was 31.2 µM; in assay [3] it was greater than 86.6 µM; in assay [5] it was greater than 100 µM; in assay [11], greater than 100 µM; in assay [13] it was greater than 75 µM.

Turning to `CCNC1=C(NC(=O)c2ccc(F)cc2)C(=O)c2ccccc2C1=O`, the TGI in assay [1], in assay [15], in [3], in [5], in assay [11] and in [13] was greater than 100 µM throughout.

Regarding `COc1cccc2c1C(=O)c1c(O)c3c(c(O)c1C2=O)C[C@@](O)(C(=O)CO)CC3OC1CC(N(C)CCOCC(OC(C)=O)OC(C)=O)C(O)C(C)O1` (some centres not stated), the TGI in assay [1], in [4], in assay [5], in assay [6], in [7] and in assay [8] was greater than 0.01 µM each time. Also, the TGI in [9], in assay [10], in [11], in assay [13] and in [14] was greater than 0.01 µM throughout.
